Source: US9447136B2, “Semisynthetic derivatives of Nystatin A1” (BLIRT S.A., priority 2012, dated 2016)
≈ marks a conversion by molar mass, not a printed value. Like-named read-outs stand apart in the source and are kept apart here.

Assays:
[1] = test system: Aspergillus niger LOCK E201; assay: Antifungal activity in vitro, serial dilution in RPMI 1640; type: cell-based; conditions: Table 2B
Procedure, shortened: (§1)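 Susceptibility determined by the NCCLS M27-A2 broth dilution method in RPMI 1640, pH 7.0. MIC defined as the lowest compound concentration reducing A531 to at most 20% of the untreated control; IC50 interpolated where A531 reached 50% of control.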

[2] = test system: Candida albicans ATCC 10231; assay: as above; type: cell-based
Procedure, shortened: as §1

[3] = test system: Candida arborea KKP 319; assay: as above; type: cell-based; conditions: Table 2B
Procedure, shortened: as §1

[4] = test system: Candida dubliniensis CBS 7987; assay: as above; type: cell-based; conditions: Table 2B
Procedure, shortened: as §1

[5] = test system: Candida lipolytica KKP 322; assay: as above; type: cell-based; conditions: Table 2B
Procedure, shortened: as §1

[6] = test system: Candida parapsilosis DSM 5784; assay: as above; type: cell-based; conditions: Table 2B
Procedure, shortened: as §1

[7] = test system: Candida pseudotropicalis KKP 324; assay: as above; type: cell-based; conditions: Table 2B
Procedure, shortened: as §1

[8] = test system: Candida quilliermondii DSM 11947; assay: as above; type: cell-based; conditions: Table 2B
Procedure, shortened: as §1

[9] = test system: Candida stellatoidea CBS 1905; assay: as above; type: cell-based; conditions: Table 2B
Procedure, shortened: as §1

[10] = test system: Saccharomyces cerevisiae ATCC 9763; assay: as above; type: cell-based
Procedure, shortened: as §1

[11] = test system: Trichoderma viride LOCK E159; assay: as above; type: cell-based; conditions: Table 2B
Procedure, shortened: as §1

[12] = test system: Human erythrocytes; assay: Hemotoxicity (hemolytic activity)
Procedure, shortened: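 Human erythrocytes in saline (2×10^7/ml) were incubated with serially diluted compound at 37 °C for 30 min, then centrifuged. Released hemoglobin was read as A540 against 0.1% Triton X-100 as full hemolysis. EH50 is the interpolated concentration giving 50% of the control A540.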

[13] = test system: Candida albicans 5674; assay: Antifungal activity towards resistant (MDR) strains; type: cell-based
Experimental: (§2) The determination of antifungal activity was performed by the serial dilutions method in buffered RPMI 1640 medium, in a 96-wells microplates, according to the standard procedure (National Committee for Clinical Laboratory Standards. Reference method for broth dilution antifungal susceptibility testing of yeast, approved standard, 2nd ed. M27-A2 vol. 22 Wayne, Pa., 2002). The optical density of cells suspension was measured using a microplates reader (Victor^3, Perkin-Elmer) at the wavelength λ=660 nm (A660). On the basis of received results the diagrams on interrelation between the A660 value and the concentration of tested compound were made. From these graphs MIC values were read, that are the concentrations of tested compounds, in the presence at which A660 value is at most 20% of A660 value measured in control sample.

[14] = test system: Candida albicans B3; assay: as above; type: cell-based; conditions: fluconazole sensitive, parent strain for B4
Experimental: as §2

[15] = test system: Candida albicans B4; assay: as above; type: cell-based
Experimental: as §2

[16] = test system: Candida albicans F2; assay: as above; type: cell-based; conditions: fluconazole sensitive, parent strain for F5
Experimental: as §2

[17] = test system: Candida albicans F5; assay: as above; type: cell-based
Experimental: as §2

[18] = test system: Candida albicans Gu4; assay: as above; type: cell-based; conditions: fluconazole sensitive, parent strain for Gu5
Experimental: as §2

[19] = test system: Candida albicans Gu5; assay: as above; type: cell-based; conditions: fluconazole-resistant due to the overexpression of CDR1 and CDR2
Experimental: as §2

[20] = test system: Candida albicans STY19; assay: as above; type: cell-based
Experimental: as §2

[21] = test system: Candida albicans STY31; assay: as above; type: cell-based
Experimental: as §2

[22] = test system: Candida albicans STY7; assay: as above; type: cell-based
Experimental: as §2

[23] = test system: Candida glabrata DSM 11226; assay: Antifungal activity in vitro, serial dilution in RPMI 1640; type: cell-based; conditions: Table 2A; RPMI 1640, pH 7.0
Procedure, shortened: as §1

[24] = test system: Candida krusei DSM 6128; assay: as above; type: cell-based; conditions: Table 2A; RPMI 1640, pH 7.0
Procedure, shortened: as §1

[25] = test system: Candida lusitaniae DSM 70102; assay: as above; type: cell-based; conditions: Table 2A; RPMI 1640, pH 7.0
Procedure, shortened: as §1

[26] = test system: Candida tropicalis KKP 334; assay: as above; type: cell-based; conditions: Table 2A; RPMI 1640, pH 7.0
Procedure, shortened: as §1

[27] = test system: CCRF-CEM; assay: Cytotoxic activity against mammalian cells in tissue culture (MTT); type: cell-based, human; conditions: CCRF-CEM, 120 h, MTT
Experimental: (§3) For examinations were used selected cell lines: CCRF-CEM—human acute lymphoblastic leukemia; HepG2—human malignant hepatoma; LLC-PK1—epithelial cell of pig kidney; All lines were from ATCC collection.
(§4) The study are conducted using described below methods of culturing and determination of cytotoxic activity.
(§5) CCRF-CEM cells were cultured in medium RPMI 1640+10% fetal bovine serum (FBS), LLC-PK1 cells in medium Medium 199+3% FBS, HepG2 cells in medium MEM+10% FBS. All media contained 100 μg/ml of penicillin G and streptomycin. 24-wells microplates containing appropriate medium were inoculated with the cells in amount of 1.2×10^4 cells/well and allowed to stand overnight. Next, tested compounds as solution in dimethylsulfoxide (DMSO) were added in volume of 10 μl (serial 2× dilutions). To control well 10 μl of DMSO was added. Microplates with cell suspensions were incubated for 120 h at temperature 37° C. at atmosphere of 95%/5% CO2. After incubation, to all wells 200 μl of solution of 3-(4,5-dimethylthiazole-2-yl)-2,5-diphenylotetrazole bromide (MTT) in PBS (4 mg/ml) was added and plates were further incubated for 4 h at 37° C. Next, to dissolve crystals of formazane 1 ml of DMSO was added and absorption of solutions was measured at the wavelength λ=540 nm (A540), using a microplates reader (Victor^3, Perkin-Wallac). […] From these graphs IC50 values were read, that is concentration of tested compound in the presence at which A540 value is half of A540 value measured in the control sample.

[28] = test system: HepG2; assay: as above; type: cell-based, human; conditions: HepG2, 120 h, MTT
Experimental: as §3, §4, §5

[29] = test system: LLC-PK1; assay: as above; type: cell-based, pig; conditions: LLC-PK1, 120 h, MTT
Experimental: as §3, §4, §5

[30] = Table 2A, RPMI 1640, pH 7.0, A531 at most 20% of control

C[C@@H]1[C@H](O)[C@@H](C)/C=C/C=C/CC/C=C/C=C/C=C/C=C/[C@H](O[C@@H]2O[C@H](C)[C@@H](O)[C@H](NC(=O)[C@H](N)c3ccccc3)[C@@H]2O)C[C@@H]2O[C@](O)(C[C@@H](O)C[C@@H](O)[C@H](O)CC[C@@H](O)C[C@@H](O)CC(=O)O[C@H]1C)C[C@H](O)[C@H]2C(=O)O [Compound N33, N-D-phenylglycylnystatin A1]
MIC Aspergillus niger LOCK E201 [1]: 32 µg/mL (≈ 30.2 µM)
MIC Candida albicans ATCC 10231 ([2]; Table 2B): 8 µg/mL (≈ 7.55 µM)
MIC Candida arborea KKP 319 [3]: 32 µg/mL (≈ 30.2 µM)
MIC Candida dubliniensis CBS 7987 [4]: 16 µg/mL (≈ 15.1 µM)
MIC Candida lipolytica KKP 322 [5]: 16 µg/mL (≈ 15.1 µM)
MIC Candida parapsilosis DSM 5784 [6]: 32 µg/mL (≈ 30.2 µM)
MIC Candida pseudotropicalis KKP 324 [7]: 8 µg/mL (≈ 7.55 µM)
MIC Candida quilliermondii DSM 11947 [8]: 16 µg/mL (≈ 15.1 µM)
MIC Candida stellatoidea CBS 1905 [9]: 8 µg/mL (≈ 7.55 µM)
MIC Saccharomyces cerevisiae ATCC 9763 ([10]; Table 2B): 4 µg/mL (≈ 3.78 µM)
MIC Trichoderma viride LOCK E159 [11]: 32 µg/mL (≈ 30.2 µM)
% of hemolysis at the concentration 300 μg ml^−1 [12]: 8.69%
EH10 [12]: >300 µg/mL
MIC Candida albicans 5674 ([13]; C. albicans 5674 overexpressing CDR1 and CDR2): 16 µg/mL (≈ 15.1 µM)
MIC Candida albicans B3 [14]: 4 µg/mL (≈ 3.78 µM)
MIC Candida albicans B4 ([15]; fluconazole-resistant due to the overexpression of CaMDR1): 8 µg/mL (≈ 7.55 µM)
MIC Candida albicans F2 [16]: 16 µg/mL (≈ 15.1 µM)
MIC Candida albicans F5 ([17]; fluconazole-resistant due to the overexpression of CaMDR1 and ERG11): 32 µg/mL (≈ 30.2 µM)
MIC Candida albicans Gu4 [18]: 8 µg/mL (≈ 7.55 µM)
MIC Candida albicans Gu5 [19]: 8 µg/mL (≈ 7.55 µM)
MIC Candida albicans STY19 ([20]; 5674 mutant derivative, deletion of CDR1): 16 µg/mL (≈ 15.1 µM)
MIC Candida albicans STY31 ([21]; 5674 mutant derivative, deletion of CDR1 and CDR2): 16 µg/mL (≈ 15.1 µM)
MIC Candida albicans STY7 ([22]; 5674 mutant derivative, deletion of CDR2): 16 µg/mL (≈ 15.1 µM)

OC(Cn1cncn1)(Cn1cncn1)c1ccc(F)cc1F [Fluconazole, reference compound]
MIC ([1]; Aspergillus niger, LOCKE201): 16 µg/mL (≈ 52.2 µM)
MIC ([2]; Candida albicans, ATCC10231, Table 2B): 2 µg/mL (≈ 6.53 µM)
MIC ([3]; Candida, KKP319): 8 µg/mL (≈ 26.1 µM)
MIC ([4]; Candida dubliniensis, CBS7987): 2 µg/mL (≈ 6.53 µM)
MIC ([5]; Yarrowia lipolytica, KKP322): 8 µg/mL (≈ 26.1 µM)
MIC ([6]; Lodderomyces parapsilosis, DSM5784): 8 µg/mL (≈ 26.1 µM)
MIC ([7]; Kluyveromyces marxianus, KKP324): 0.5 µg/mL (≈ 1.63 µM)
MIC ([8]; Candida, DSM11947): 8 µg/mL (≈ 26.1 µM)
MIC ([9]; Candida albicans, CBS1905): 0.5 µg/mL (≈ 1.63 µM)
MIC ([10]; Saccharomyces cerevisiae, ATCC9763, Table 2B): 2 µg/mL (≈ 6.53 µM)
MIC ([11]; Trichoderma viride, LOCKE159): 8 µg/mL (≈ 26.1 µM)
MIC ([13]; Candida albicans, 5674, read-out: MIC Candida albicans 5674): 2050 µg/mL (≈ 6690 µM)
MIC ([14]; Candida albicans, B3): 0.5 µg/mL (≈ 1.63 µM)
MIC ([15]; Candida albicans, B4, read-out: MIC Candida albicans B4): 16 µg/mL (≈ 52.2 µM)
MIC ([16]; Candida albicans, F2): 32 µg/mL (≈ 104 µM)
MIC ([17]; Candida albicans, F5, read-out: MIC Candida albicans F5): 128 µg/mL (≈ 418 µM)
MIC ([18]; Candida albicans, GU4): 0.5 µg/mL (≈ 1.63 µM)
MIC ([19]; Candida albicans, GU5): 256 µg/mL (≈ 836 µM)
MIC ([20]; Candida albicans, STY19, read-out: MIC Candida albicans STY19): 64 µg/mL (≈ 209 µM)
MIC ([21]; Candida albicans, STY31, read-out: MIC Candida albicans STY31): 64 µg/mL (≈ 209 µM)
MIC ([22]; Candida albicans, STY7, read-out: MIC Candida albicans STY7): 512 µg/mL (≈ 1670 µM)

CC1OC(O[C@H]2/C=C/C=C/C=C/C=C/CC/C=C/C=C/[C@H](C)[C@@H](O)[C@@H](C)[C@H](C)OC(=O)C[C@H](O)C[C@H](O)C[C@H](O)CC[C@@H](O)[C@H](O)CC3(O)C[C@H](O)[C@@H](C(=O)O)[C@H](C2)O3)C(O)C(NC(=S)NCCCN(C)C)C1O (stereo partly shown) [Compound N17, N-{3-[3-(N,N-dimethylamino)propyl]thioureidyl}nystatin A1]
Antifungal activity Candida albicans ATCC 10231 IC50 ([2]; Table 2A, RPMI 1640, pH 7.0, A531 50% of control): 2.92 µg/mL
Antifungal activity Candida albicans ATCC 10231 MIC [2, 30]: 4 µg/mL
Antifungal activity Candida glabrata DSM 11226 MIC [23]: 8 µg/mL
Antifungal activity Candida krusei DSM 6128 MIC [24]: 8 µg/mL
Antifungal activity Candida lusitaniae DSM 70102 MIC [25]: 4 µg/mL
Antifungal activity Candida tropicalis KKP 334 MIC [26]: 4 µg/mL
Antifungal activity Saccharomyces cerevisiae ATCC 9763 MIC [10, 30]: 4 µg/mL
EH10 ([12]; human erythrocytes, concentration causing 10% of hemolysis): 156.33 µg/mL
Cytotoxicity IC50 CCRF-CEM [27]: >100 µg/mL
Cytotoxicity IC50 HepG2 [28]: >100 µg/mL
Cytotoxicity IC50 LLC-PK1 [29]: >100 µg/mL
